ChEMBL document CHEMBL1126377, “Synthesis of 9-[2-(phosphonomethoxy)ethylamino]adenine and 9-[(phosphonomethoxy)acetamido]adenine, analogues of a potent anti-HIV acyclonucleotide” (Bioorg Med Chem Lett, 1992)
The source made the active and inactive calls. The rule behind the calls is not given here.

Assays:
Assay type in all cases: functional, organism-based
[1] = system: Human immunodeficiency virus 1; assay: Inhibition of the replication of human immunodeficiency virus (HIV) at 10 uM concentration
[2] = system: Human alphaherpesvirus 2; assay: Effect on replication of herpes simplex virus type 2 at a concentration of 300 uM; NE=No effect
[3] = system: Human alphaherpesvirus 3; assay: Effect on replication of varicella zoster virus at a concentration of 300 uM; NE=No effect
[4] = system: Human alphaherpesvirus 1; assay: Effect on replication of herpes simplex virus type 1 at a concentration of 300 uM; NE=No effect
[5] = system: Cytomegalovirus; assay: Effect on replication of cytomegalovirus at a concentration of 300 uM; NE=No effect
[6] = system: Human immunodeficiency virus 1; assay: Inhibition of the replication of human immunodeficiency virus (HIV) at 10 uM concentration; NE=No effect

With `Nc1ncnc2c1ncn2OCCOCP(=O)(O)O` the IC50 [1] was 0.3 µM.
In the case of `Nc1ncnc2c1ncn2NCCOCP(=O)(O)O`, the Activity [2] is reported as “inactive”, the Activity [3] is reported as “inactive” and the Activity [4] is reported as “inactive”. For the same compound, the Activity [5] was “inactive” and the Activity [6] was “inactive”.
`Nc1ncnc2c1ncn2NC(=O)COCP(=O)(O)O` was tested, and the Activity [2] was “inactive”, the Activity [3] was “inactive” and the Activity [4] was “inactive”. For the same compound, the Activity [5] was “inactive” and the Activity [6] was “inactive”.
With `Nc1ncnc2c1ncn2OCC/C=C/P(=O)(O)O` the IC50 [1] was 10 µM.
